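Cells were grown in 96-well plates and exposed to each compound for 48 hours at five concentrations; endpoints were interpolated linearly between bracketing concentrations, or set to the highest concentration if not reached. GI50: concentration for 50% inhibition of growth.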 Active and inactive are the calls of the source. Rule as the data show it: active = GI50 up to about 1.1 µM and inactive = higher.

Among the test systems are OVCAR-8; RXF 393; SW-620; NCI-H23; OVCAR-3; MDA-N; SK-MEL-5; RPMI-8226; SNB-19; BT-549; HCT-116; DU-145; NCI/ADR-RES; SF-295; CAKI-1; HCT-15; M14; UACC-257; KM12.
What all share (assay): NCI anticancer screen, dose series, 48 h

For the compound `COc1cc(/C=C2\Cc3cc(OC)c(OC)cc3C2=O)cc(OC)c1`, the GI50 with OVCAR-8 is > 26 µM (inactive); with RXF 393 it was 19.8 µM (inactive); in the experiment on SW-620 it was > 100 µM (inactive); in the experiment with NCI-H23, 17.6 µM (inactive); in the experiment on OVCAR-3, > 92.3 µM (inactive); in the experiment on MDA-N, 0.771 µM (active). The GI50 is 10.8 µM (inactive) with SK-MEL-5; > 33.6 µM (inactive) with RPMI-8226; 25.8 µM (inactive) in the experiment with SNB-19; 15.3 µM (inactive) in the experiment with BT-549; 21 µM (inactive) in the experiment with HCT-116; > 100 µM (inactive) with DU-145. For the same compound, the GI50 in the experiment on NCI/ADR-RES is 0.904 µM (active); in the experiment with SF-295 it was 4.2 µM (inactive); with CAKI-1, > 46.8 µM (inactive); with HCT-15 it was 5.26 µM; with M14, > 100 µM (inactive); with UACC-257, > 87.3 µM (inactive).

On to `O=C(C/N=C(\CN(c1ccccc1)c1ccccc1)Oc1ccc(Cl)cc1Cl)n1ccnc1`, for which the GI50 in the experiment on OVCAR-8, in the experiment on RXF 393, with SW-620, in the experiment on NCI-H23, in the experiment on OVCAR-3 and with MDA-N was > 100 µM (inactive) in each case. For the same compound, the GI50 in the experiment on SK-MEL-5, in the experiment on RPMI-8226, in the experiment with SNB-19, in the experiment with KM12, in the experiment with BT-549 and with HCT-116 was > 100 µM (inactive) in each case. In addition, the GI50 was > 100 µM (inactive) with DU-145; > 100 µM (inactive) in the experiment with NCI/ADR-RES; > 100 µM (inactive) in the experiment on SF-295; > 100 µM in the experiment with HCT-15; > 100 µM (inactive) with M14; > 100 µM (inactive) in the experiment with UACC-257.

Regarding `Cc1ccc(SCC(OCn2cnc3c(Cl)nc(N)nc32)[C@H](C)F)cc1` (stereo partly specified), the GI50 is 63 µM (inactive) in the experiment with OVCAR-8; > 100 µM (inactive) with SW-620; 50.9 µM (inactive) in the experiment on NCI-H23; > 100 µM (inactive) with OVCAR-3; > 100 µM (inactive) with MDA-N; 18.1 µM (inactive) in the experiment on SK-MEL-5. The GI50 in the experiment with RPMI-8226 was 36.9 µM (inactive); in the experiment on SNB-19, > 100 µM (inactive); with KM12, 81.8 µM (inactive); in the experiment on BT-549, 52.4 µM (inactive); in the experiment on HCT-116, 50.4 µM (inactive); in the experiment on DU-145, > 100 µM (inactive). Also, the GI50 in the experiment with NCI/ADR-RES is 30.1 µM (inactive); in the experiment with SF-295 it was 53.7 µM (inactive); in the experiment on CAKI-1, > 100 µM (inactive); with HCT-15, > 100 µM; in the experiment on M14, > 100 µM (inactive); with UACC-257 it was 21.1 µM (inactive).

`c1cc(-c2ccc(-c3ccc(C4=NCCCN4)cc3)o2)ccc1C1=NCCCN1`: the GI50 in the experiment on OVCAR-8 was 59.3 µM (inactive); in the experiment on RXF 393, > 100 µM (inactive); in the experiment with SW-620, 82.2 µM (inactive); in the experiment on NCI-H23, 46 µM (inactive); with OVCAR-3, > 100 µM (inactive); in the experiment on MDA-N, 32.6 µM (inactive). The GI50 in the experiment with SK-MEL-5 was 22.8 µM (inactive); with SNB-19, 52.6 µM (inactive); with KM12, 43.7 µM (inactive); in the experiment with BT-549 it was 35.4 µM (inactive); in the experiment on HCT-116, 39.6 µM (inactive); with DU-145, 89.3 µM (inactive). For the same compound, the GI50 with NCI/ADR-RES was 76.7 µM (inactive); with SF-295 it was 24.2 µM (inactive); with CAKI-1, 74.1 µM (inactive); in the experiment on HCT-15 it was 90.8 µM; in the experiment on M14, 53.5 µM (inactive); in the experiment with UACC-257, 38.8 µM (inactive).

`O=C(N/N=C(COc1cccc(Cl)c1)\N=C\c1cccnc1)c1ccncc1`: the GI50 in the experiment on OVCAR-8 is 89.3 µM (inactive); with RXF 393, 35.3 µM (inactive); with SW-620 it was > 100 µM (inactive); with NCI-H23, > 100 µM (inactive); in the experiment on OVCAR-3, > 100 µM (inactive); in the experiment on MDA-N, > 100 µM (inactive). In addition, the GI50 with RPMI-8226, in the experiment on SNB-19, in the experiment with KM12, in the experiment with BT-549, with HCT-116 and with DU-145 was > 100 µM (inactive) in each case. For the same compound, the GI50 in the experiment with NCI/ADR-RES was > 100 µM (inactive); in the experiment with SF-295 it was > 100 µM (inactive); in the experiment on CAKI-1, 73.5 µM (inactive); in the experiment with HCT-15 it was > 100 µM; in the experiment on M14, > 100 µM (inactive); in the experiment on UACC-257 it was 90.4 µM (inactive).

With `CCOC(=O)C(CS)NC(=O)CCCCCCCC(=O)O` (stereo unspecified), the GI50 in the experiment on OVCAR-8, in the experiment on SW-620, in the experiment on NCI-H23, in the experiment with OVCAR-3, in the experiment on MDA-N and with SK-MEL-5 was > 100 µM (inactive) throughout. Also, the GI50 in the experiment on RPMI-8226, in the experiment on SNB-19, with KM12, in the experiment with BT-549, in the experiment on HCT-116 and with DU-145 was > 100 µM (inactive) in each case. Besides, the GI50 in the experiment with NCI/ADR-RES is > 100 µM (inactive); in the experiment on SF-295 it was > 100 µM (inactive); in the experiment with CAKI-1, > 100 µM (inactive); in the experiment on HCT-15 it was > 100 µM; with M14, > 100 µM (inactive); with UACC-257, > 100 µM (inactive).

Turning to `CC1(C(O)c2ccccc2)CN(C(C)(C)C)C(=O)/C1=C\Sc1ccccc1` (stereo unspecified), the GI50 with OVCAR-8 is 28.2 µM (inactive); in the experiment with SW-620 it was 46.8 µM (inactive); with NCI-H23 it was > 100 µM (inactive); in the experiment on OVCAR-3, 21.2 µM (inactive); with MDA-N, 39.1 µM (inactive); in the experiment on SK-MEL-5 it was 43.7 µM (inactive). In addition, the GI50 in the experiment on RPMI-8226 is 9.95 µM (inactive); in the experiment with SNB-19, > 100 µM (inactive); in the experiment on KM12 it was 31.8 µM (inactive); with BT-549, 59.6 µM (inactive); in the experiment on HCT-116, 25.4 µM (inactive); with DU-145, > 100 µM (inactive). Besides, the GI50 is 35.6 µM (inactive) in the experiment on NCI/ADR-RES; 28.3 µM (inactive) in the experiment on SF-295; > 100 µM (inactive) with CAKI-1; 29.2 µM in the experiment on HCT-15; 51.3 µM (inactive) with M14; 24.9 µM (inactive) in the experiment with UACC-257.

Take `C=CCc1oc(C)nc1CCCC`: the GI50 with OVCAR-8, in the experiment on RXF 393, in the experiment on SW-620, in the experiment with NCI-H23, in the experiment on OVCAR-3 and in the experiment with MDA-N was > 100 µM (inactive) each time. Also, the GI50 in the experiment with SK-MEL-5 is > 100 µM (inactive); in the experiment with SNB-19, 49.3 µM (inactive); with KM12 it was > 100 µM (inactive); in the experiment with BT-549 it was > 100 µM (inactive); with HCT-116, > 100 µM (inactive); in the experiment with DU-145, > 100 µM (inactive). Further, the GI50 with NCI/ADR-RES was > 100 µM (inactive); with SF-295 it was > 100 µM (inactive); in the experiment on CAKI-1, > 100 µM (inactive); in the experiment with HCT-15, > 100 µM; in the experiment with M14 it was > 100 µM (inactive); in the experiment on UACC-257 it was > 100 µM (inactive).

For the compound `CN1CCCCCC(=N\O)/C(=N/O)CCCCC1`, the GI50 with OVCAR-8, in the experiment on RXF 393, with SW-620, in the experiment on NCI-H23, in the experiment on OVCAR-3 and with MDA-N was > 100 µM (inactive) throughout. Further, the GI50 in the experiment with SK-MEL-5 is > 100 µM (inactive); with SNB-19, > 100 µM (inactive); in the experiment on KM12, > 100 µM (inactive); with BT-549, 80.7 µM (inactive); with HCT-116, > 100 µM (inactive); with DU-145, > 100 µM (inactive). Besides, the GI50 was > 100 µM (inactive) in the experiment with NCI/ADR-RES; > 100 µM (inactive) in the experiment with SF-295; > 100 µM (inactive) in the experiment with CAKI-1; > 100 µM in the experiment on HCT-15; > 100 µM (inactive) in the experiment with M14; > 100 µM (inactive) with UACC-257.

Turning to `COc1ccc(CC(O)CN2CCOCC2)cc1` (stereo unspecified), the GI50 in the experiment with OVCAR-8, in the experiment with RXF 393, with SW-620, with NCI-H23, in the experiment on OVCAR-3 and in the experiment on MDA-N was > 100 µM (inactive) throughout. Also, the GI50 with SK-MEL-5, in the experiment on SNB-19, in the experiment on KM12, in the experiment on BT-549, in the experiment on HCT-116 and with DU-145 was > 100 µM (inactive) in each case. Further, the GI50 in the experiment on NCI/ADR-RES is > 100 µM (inactive); in the experiment on SF-295, > 100 µM (inactive); with CAKI-1 it was > 100 µM (inactive); in the experiment with HCT-15, > 100 µM; in the experiment on M14, > 100 µM (inactive); in the experiment on UACC-257, > 100 µM (inactive).

With `O=c1c(C(c2ccc([N+](=O)[O-])cc2)c2c(O)oc3ccccc3c2=O)c(O)oc2ccccc12`, the GI50 in the experiment with OVCAR-8, with SW-620, with NCI-H23, in the experiment with OVCAR-3, in the experiment on MDA-N and with SK-MEL-5 was > 100 µM (inactive) throughout. Also, the GI50 in the experiment on RPMI-8226 is 1 µM (active); with SNB-19, > 100 µM (inactive); in the experiment with KM12, > 100 µM (inactive); in the experiment on BT-549, > 100 µM (inactive); with HCT-116 it was > 100 µM (inactive); in the experiment with DU-145, > 100 µM (inactive). Also, the GI50 was > 100 µM (inactive) in the experiment with NCI/ADR-RES, > 100 µM (inactive) in the experiment with CAKI-1, > 100 µM in the experiment on HCT-15 and > 100 µM (inactive) in the experiment on UACC-257.

For the origin of these results see ChEMBL document CHEMBL1201862, “PubChem BioAssay data set” (2004).
